Holding throughout (assay type): cell-based
The target of one assay is T1, human TLR7 (Homo sapiens, UniProt Q9NYK1).
T1 construct: host or cells: HEK-Blue cells
T1 sequence (Q9NYK1 27-1049): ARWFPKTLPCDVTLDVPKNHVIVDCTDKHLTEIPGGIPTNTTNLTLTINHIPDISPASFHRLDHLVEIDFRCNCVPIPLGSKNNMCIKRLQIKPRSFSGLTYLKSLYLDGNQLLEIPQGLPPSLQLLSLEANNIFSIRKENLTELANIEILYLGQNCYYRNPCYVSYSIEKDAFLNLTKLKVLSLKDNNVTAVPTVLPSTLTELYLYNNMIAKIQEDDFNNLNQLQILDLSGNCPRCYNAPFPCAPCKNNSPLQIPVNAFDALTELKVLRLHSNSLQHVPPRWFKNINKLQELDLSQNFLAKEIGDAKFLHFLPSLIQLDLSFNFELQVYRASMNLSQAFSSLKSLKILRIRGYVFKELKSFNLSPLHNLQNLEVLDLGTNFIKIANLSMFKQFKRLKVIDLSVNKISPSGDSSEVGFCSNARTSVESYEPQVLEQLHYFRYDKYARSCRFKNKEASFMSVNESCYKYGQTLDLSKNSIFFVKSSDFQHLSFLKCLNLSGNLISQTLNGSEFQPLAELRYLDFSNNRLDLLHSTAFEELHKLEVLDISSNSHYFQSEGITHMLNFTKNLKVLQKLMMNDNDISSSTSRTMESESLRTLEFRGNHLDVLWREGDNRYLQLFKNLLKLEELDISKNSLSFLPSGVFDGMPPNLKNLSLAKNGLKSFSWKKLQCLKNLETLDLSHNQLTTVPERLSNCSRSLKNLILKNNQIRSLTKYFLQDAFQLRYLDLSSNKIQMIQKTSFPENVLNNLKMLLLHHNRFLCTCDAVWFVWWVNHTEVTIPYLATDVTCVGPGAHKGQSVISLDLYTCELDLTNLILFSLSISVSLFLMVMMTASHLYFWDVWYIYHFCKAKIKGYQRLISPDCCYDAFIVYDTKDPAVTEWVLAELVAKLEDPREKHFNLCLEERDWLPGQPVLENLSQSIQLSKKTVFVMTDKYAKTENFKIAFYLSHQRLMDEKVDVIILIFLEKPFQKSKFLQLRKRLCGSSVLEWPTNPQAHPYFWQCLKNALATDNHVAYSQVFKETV
Briefly: TLR7 inhibition reporter assay (HEK-Blue cells, SEAP reporter, gardiquimod stimulation). Particulars: HEK-Blue cells overexpressing human TLR7, SEAP reporter, gardiquimod 7.5 μM. A digest of the protocol:
(§1)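 HEK-Blue cells overexpressing human TLR7, TLR8 or TLR9, with an NF-κB/AP-1-driven SEAP reporter, pre-treated 30 min at room temperature with compound (0.05 nM-50 μM final). Stimulated with 7.5 μM gardiquimod (TLR7), 15.9 μM R848 (TLR8) or 5 nM ODN2006 (TLR9), then 22 h at 37° C. SEAP read with HEK-Blue Detection; % inhibition set against agonist+DMSO and known-inhibitor wells.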
On the technique in general: In a reporter assay the amount or activity of a reporter protein is the signal.

Another assay concerns the target T2, human TLR8 (Homo sapiens, UniProt Q9NR97).
T2 construct: host or cells: HEK-Blue cells
T2 sequence (Q9NR97 27-1041): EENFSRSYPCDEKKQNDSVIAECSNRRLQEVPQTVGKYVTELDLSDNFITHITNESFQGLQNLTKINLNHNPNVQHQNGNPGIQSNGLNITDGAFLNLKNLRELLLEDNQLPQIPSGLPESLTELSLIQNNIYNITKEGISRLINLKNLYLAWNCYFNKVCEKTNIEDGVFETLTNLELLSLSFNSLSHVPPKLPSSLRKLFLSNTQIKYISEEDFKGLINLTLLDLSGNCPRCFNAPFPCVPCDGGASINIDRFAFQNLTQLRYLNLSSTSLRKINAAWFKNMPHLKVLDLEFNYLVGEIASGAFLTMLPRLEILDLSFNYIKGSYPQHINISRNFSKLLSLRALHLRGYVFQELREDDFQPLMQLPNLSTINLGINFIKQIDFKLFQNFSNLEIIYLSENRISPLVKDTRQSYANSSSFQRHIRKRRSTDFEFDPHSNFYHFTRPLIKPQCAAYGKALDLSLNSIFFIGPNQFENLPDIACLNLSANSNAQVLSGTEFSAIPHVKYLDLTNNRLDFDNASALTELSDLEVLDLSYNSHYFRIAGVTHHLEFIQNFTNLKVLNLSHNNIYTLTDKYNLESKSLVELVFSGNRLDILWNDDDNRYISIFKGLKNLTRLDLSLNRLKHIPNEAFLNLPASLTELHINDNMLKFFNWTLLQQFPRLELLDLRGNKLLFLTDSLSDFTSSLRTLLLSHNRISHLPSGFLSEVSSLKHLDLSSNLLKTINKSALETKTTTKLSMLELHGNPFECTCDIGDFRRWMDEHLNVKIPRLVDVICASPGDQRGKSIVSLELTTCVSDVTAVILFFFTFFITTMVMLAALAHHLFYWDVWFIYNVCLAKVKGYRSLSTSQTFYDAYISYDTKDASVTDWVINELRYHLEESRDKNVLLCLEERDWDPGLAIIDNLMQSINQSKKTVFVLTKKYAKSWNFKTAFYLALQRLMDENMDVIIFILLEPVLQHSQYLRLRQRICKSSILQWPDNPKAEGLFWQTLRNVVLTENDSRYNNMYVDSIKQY
Briefly: TLR8 inhibition reporter assay (HEK-Blue cells, SEAP reporter, R848 stimulation). Particulars: HEK-Blue cells overexpressing human TLR8, SEAP reporter, R848 15.9 μM. A digest of the protocol:
as §1

For another assay, the target named is T3, human TLR9 (Homo sapiens, UniProt Q9NR96).
T3 construct: host or cells: HEK-Blue cells
T3 sequence (Q9NR96 26-1032): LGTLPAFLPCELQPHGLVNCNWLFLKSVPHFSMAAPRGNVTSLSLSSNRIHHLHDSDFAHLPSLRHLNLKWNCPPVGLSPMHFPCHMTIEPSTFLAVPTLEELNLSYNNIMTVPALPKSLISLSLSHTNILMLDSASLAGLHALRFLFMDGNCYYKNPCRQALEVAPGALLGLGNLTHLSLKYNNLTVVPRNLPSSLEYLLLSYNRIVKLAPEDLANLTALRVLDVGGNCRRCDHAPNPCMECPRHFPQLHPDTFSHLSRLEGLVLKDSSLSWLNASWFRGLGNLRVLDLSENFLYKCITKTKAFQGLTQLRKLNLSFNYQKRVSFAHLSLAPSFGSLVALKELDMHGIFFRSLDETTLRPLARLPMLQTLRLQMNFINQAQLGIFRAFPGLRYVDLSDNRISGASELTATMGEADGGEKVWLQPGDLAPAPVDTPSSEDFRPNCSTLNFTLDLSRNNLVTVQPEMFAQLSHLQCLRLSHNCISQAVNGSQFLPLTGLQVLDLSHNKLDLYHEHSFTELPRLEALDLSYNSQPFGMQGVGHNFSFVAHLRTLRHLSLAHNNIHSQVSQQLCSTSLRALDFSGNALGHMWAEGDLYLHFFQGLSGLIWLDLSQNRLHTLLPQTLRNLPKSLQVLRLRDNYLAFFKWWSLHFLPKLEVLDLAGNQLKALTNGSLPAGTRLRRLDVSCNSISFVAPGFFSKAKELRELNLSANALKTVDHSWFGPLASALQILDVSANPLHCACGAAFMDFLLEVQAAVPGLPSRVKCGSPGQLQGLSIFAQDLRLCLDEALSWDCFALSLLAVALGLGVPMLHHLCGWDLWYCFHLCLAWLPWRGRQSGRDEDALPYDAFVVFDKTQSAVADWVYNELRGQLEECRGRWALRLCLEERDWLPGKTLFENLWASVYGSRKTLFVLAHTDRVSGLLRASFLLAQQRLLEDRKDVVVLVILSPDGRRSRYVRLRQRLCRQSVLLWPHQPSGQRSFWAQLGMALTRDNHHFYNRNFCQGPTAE
Briefly: TLR9 inhibition reporter assay (HEK-Blue cells, SEAP reporter, ODN2006 stimulation). Particulars: HEK-Blue cells overexpressing human TLR9, SEAP reporter, ODN2006 5 nM. A digest of the protocol: as §1

As usually defined, the IC50 is the concentration that gives 50% inhibition.

As to `Cc1cc(-c2[nH]nc(C(=O)N[C@H]3CC[C@H](NC4CCOCC4)CC3)c2C(C)C)cn2ncnc12` [Example 116], the IC50 against human TLR7 was 3.11 nM; at human TLR8, 1.91 nM; against human TLR9, 3880 nM.
For `Cc1cc(-c2[nH]nc(C(=O)N[C@H]3CC[C@H](NC(C)C(C)C)CC3)c2C(C)C)cn2ncnc12` (stereo partly drawn) [Example 118] the same measures were 2 nM, 1.26 nM and 3300 nM.
Take `CCC(CC)N[C@H]1CC[C@H](NC(=O)c2n[nH]c(-c3cc(C)c4ncnn4c3)c2C(C)C)CC1` [Example 119]: the IC50 against human TLR7 is 3.33 nM; against human TLR8 it was 54.2 nM; against human TLR9, over 50000 nM.
Regarding `Cc1cc(-c2[nH]nc(C(=O)N[C@H]3CC[C@H](NC(C)CC(C)(C)C)CC3)c2C(C)C)cn2ncnc12` (stereo partly drawn) [Example 120], the IC50 was 4.19 nM on human TLR7, 16.7 nM at human TLR8 and over 50000 nM on human TLR9.
In the case of `Cc1cc(-c2[nH]nc(C(=O)NC3CCC(NC4(C)COC4)CC3)c2C(C)C)cn2ncnc12` (stereo not drawn) [Example 123], the values for the IC50 at human TLR7, against human TLR8 and on human TLR9 were 5.09 nM, 16.8 nM and 6290 nM, respectively.
As for `Cc1cc(-c2[nH]nc(C(=O)NC3CCC(NC4(C)COC4)CC3)c2C(C)C)cn2ncnc12` (stereo not drawn) [Example 124], the IC50 at human TLR7 stood at 7.72 nM; against human TLR8, 31.5 nM; at human TLR9, 28600 nM.
Turning to `Cc1cc(-c2[nH]nc(C(=O)NC3CCN(C(C)C(C)C)CC3)c2C(C)C)cn2ncnc12` (stereo not drawn) [Example 125], the IC50 against human TLR7 was 5.8 nM; against human TLR8, 25.9 nM; on human TLR9, 5400 nM.
Turning to `Cc1cc(-c2[nH]nc(C(=O)NC3CCC(NCC(C)(C)C)CC3)c2C(C)C)cn2ncnc12` (stereo not drawn) [Example 126], the values for the IC50 at human TLR7, against human TLR8 and at human TLR9 were 0.98 nM, 6.83 nM and 13200 nM, respectively.
On to `COCCN(C)C1CCC(NC(=O)c2n[nH]c(-c3cc(C)c4ncnn4c3)c2C(C)C)CC1` (stereo not drawn) [Example 128], for which the values for the IC50 on human TLR7, against human TLR8 and at human TLR9 were 1.21 nM, 8.29 nM and 13400 nM, respectively.
For `CNC1CCC(NC(=O)c2n[nH]c(-c3cc(C)c4ncnn4c3)c2C(C)C)CC1` (stereo not drawn) [Example 129], the IC50 at human TLR7 came out at 1.34 nM; at human TLR8, 7.36 nM; against human TLR9 it was 14400 nM.
Regarding `CNC1CCC(NC(=O)c2n[nH]c(-c3cc(C)c4ncnn4c3)c2C(C)C)CC1` (stereo not drawn) [Example 130], the IC50 on human TLR7 worked out at 0.45 nM; against human TLR8 it was 2.42 nM; on human TLR9, 11500 nM.
In the case of `Cc1cc(-c2[nH]nc(C(=O)NC3CCC(NCC(C)(C)C)CC3)c2C(C)C)cn2ncnc12` (stereo not drawn) [Example 131], the IC50 on human TLR7 was determined as 7.48 nM; against human TLR8 it was 32.6 nM; against human TLR9 it was 10900 nM.
As to `Cc1cc(-c2[nH]nc(C(=O)NCC3CN(C)CCO3)c2C(C)C)cn2ncnc12` (stereo not drawn) [Example 134], the half-inhibitory concentration (IC50) was 1.23 nM against human TLR7, 1.28 nM against human TLR8 and 16100 nM against human TLR9.
As for `Cc1cc(-c2[nH]nc(C(=O)NCC3CN(C(C)C)CCO3)c2C(C)C)cn2ncnc12` (stereo not drawn) [Example 135], the values for the IC50 at human TLR7, against human TLR8 and on human TLR9 were 6.8 nM, 38.9 nM and 22400 nM, respectively.
As for `Cc1cc(-c2[nH]nc(C(=O)NCC3CN(C4COC4)CCO3)c2C(C)C)cn2ncnc12` (stereo not drawn) [Example 136], the IC50 at human TLR7 was found to be 1.69 nM; against human TLR8 it was 4.36 nM; at human TLR9, 42800 nM.
Regarding `Cc1cc(-c2[nH]nc(C(=O)NCC3CN(CC4(C)COC4)CCO3)c2C(C)C)cn2ncnc12` (stereo not drawn) [Example 137], the results for the IC50 against human TLR7, against human TLR8 and at human TLR9 were 3.4 nM, 40.8 nM and 6730 nM, respectively.
Consider `Cc1cc(-c2[nH]nc(C(=O)NC3CCN(CC(C)(C)O)CC3)c2C(C)C)cn2ncnc12` [Example 138], for which the values for the IC50 on human TLR7, against human TLR8 and on human TLR9 were 0.93 nM, 3.96 nM and 14800 nM, respectively.
As to `Cc1cc(-c2[nH]nc(C(=O)NCC3CN(C)CCO3)c2C(C)C)cn2ncnc12` (stereo not drawn) [Example 139], the IC50 was 4.96 nM at human TLR7, 26.3 nM against human TLR8 and 17500 nM against human TLR9.
On to `CCN1CCOC(CNC(=O)c2n[nH]c(-c3cc(C)c4ncnn4c3)c2C(C)C)C1` (stereo not drawn) [Example 140], for which the IC50 was determined as 0.59 nM against human TLR7, 0.89 nM against human TLR8 and 10400 nM against human TLR9.
In the case of `Cc1cc(-c2[nH]nc(C(=O)NCC3CN(C(C)C)CCO3)c2C(C)C)cn2ncnc12` (stereo not drawn) [Example 141], the results for the IC50 on human TLR7, against human TLR8 and at human TLR9 were 3.03 nM, 13.5 nM and 12800 nM, respectively.
For `Cc1cc(-c2[nH]nc(C(=O)NCC3CN(C4COC4)CCO3)c2C(C)C)cn2ncnc12` (stereo not drawn) [Example 142], in that order: 2.08 nM, 2.7 nM and 6970 nM.
Turning to `Cc1cc(-c2[nH]nc(C(=O)NCC3CN(CC(C)(C)O)CCO3)c2C(C)C)cn2ncnc12` (stereo not drawn) [Example 143], the IC50 against human TLR7 stood at 5.34 nM; against human TLR8, 19.6 nM; against human TLR9 it was 9280 nM.

The record behind these values is patent US20230117470A1, “SUBSTITUTED PYRAZOLE COMPOUNDS AS TOLL RECEPTOR INHIBITORS” (BRISTOL-MYERS SQUIBB COMPANY, priority 2019, published 2023).
